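48-hour exposure; five concentrations; linearly interpolated endpoints. GI50 is the concentration that inhibits growth by half. The concentration for full growth arrest is given as TGI.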
Legend:
Assay in all cases: NCI anticancer screen, dose series, 48 h
[1] = tested on: SK-MEL-5 melanoma
[2] = tested on: SW-620 colon
[3] = tested on: T-47D breast
[4] = tested on: PC-3 prostate
[5] = tested on: IGROV1 ovarian
[6] = tested on: SF-295 CNS
[7] = tested on: SK-MEL-28 melanoma
[8] = tested on: SNB-75 CNS
[9] = tested on: A498 renal
[10] = tested on: KM12 colon
[11] = tested on: MOLT-4 leukemia
[12] = tested on: OVCAR-8 ovarian
[13] = tested on: MCF7 breast
[14] = tested on: CCRF-CEM leukemia
[15] = tested on: HL-60(TB) leukemia
[16] = tested on: HT29 colon
[17] = tested on: COLO 205 colon
[18] = tested on: 786-0 renal
[19] = tested on: K-562 leukemia
[20] = tested on: NCI-H23 lung
[21] = tested on: A549 NSCLC
[22] = tested on: SK-MEL-2 melanoma
[23] = tested on: SN12C renal
[24] = tested on: MDA-MB-435
[25] = tested on: RXF 393 renal
[26] = tested on: NCI-H522 lung
[27] = tested on: ACHN renal
[28] = tested on: UACC-62 melanoma
[29] = tested on: HCC-2998 colon
[30] = tested on: RPMI-8226 leukemia
[31] = tested on: SNB-19 CNS
[32] = tested on: EKVX NSCLC
[33] = tested on: HS 578T breast
[34] = tested on: M14 melanoma
[35] = tested on: BT-549 breast
[36] = tested on: OVCAR-3 ovarian
[37] = tested on: UO-31 renal
[38] = tested on: OVCAR-4 ovarian
[39] = tested on: NCI-H226 lung
[40] = tested on: U251 CNS
[41] = tested on: HCT-116 colon
[42] = tested on: CAKI-1 renal
[43] = tested on: NCI-H460 lung
[44] = tested on: HOP-92 NSCLC
[45] = tested on: HOP-62 NSCLC
[46] = tested on: SR leukemia
[47] = tested on: MALME-3M melanoma
[48] = tested on: LOX IMVI melanoma
[49] = tested on: UACC-257 melanoma
[50] = tested on: HCT-15 colon
[51] = tested on: NCI/ADR-RES ovarian
[52] = tested on: MDA-MB-231 breast
[53] = tested on: DU-145 prostate
[54] = tested on: SF-539 CNS
[55] = tested on: SK-OV-3 ovarian
[56] = tested on: TK-10 renal
[57] = tested on: OVCAR-5 ovarian
[58] = tested on: SF-268 CNS

Cc1[nH]c(C(=O)Nc2ccc(S(=O)(=O)N3CCCCC3)cc2OCCOCCOCCOCCOCCOCCOCCOCCOCCOc2cc(S(=O)(=O)N3CCCCC3)ccc2NC(=O)c2[nH]c(C)c3c2CCCCC3=O)c2c1C(=O)CCCC2
GI50 [1]: 3920 nM | TGI [1]: > 89800 nM | GI50 [2]: 2050 nM | TGI [2]: > 100000 nM | GI50 [3]: 489 nM | TGI [3]: > 100000 nM | GI50 [4]: 1090 nM | TGI [4]: > 100000 nM | GI50 [5]: 480 nM | GI50 [6]: 2830 nM | TGI [6]: > 100000 nM | GI50 [7]: 1590 nM | TGI [7]: > 100000 nM | GI50 [8]: 78.8 nM | TGI [8]: 1180 nM | GI50 [9]: 1210 nM | GI50 [10]: 1680 nM | TGI [10]: > 100000 nM | GI50 [11]: 861 nM | TGI [11]: > 32800 nM | GI50 [12]: 1670 nM | TGI [12]: > 100000 nM | GI50 [13]: 95 nM | TGI [13]: > 100000 nM | GI50 [14]: 1290 nM | TGI [14]: > 100000 nM | GI50 [15]: 108 nM | GI50 [16]: 648 nM | TGI [16]: > 19800 nM | GI50 [17]: 1170 nM | TGI [17]: > 100000 nM | GI50 [18]: 1690 nM | TGI [18]: > 100000 nM | GI50 [19]: 435 nM | TGI [19]: > 100000 nM | GI50 [20]: 2380 nM | TGI [20]: > 100000 nM | GI50 [21]: 2390 nM | TGI [21]: > 100000 nM | GI50 [22]: 768 nM | GI50 [23]: 1480 nM | TGI [23]: > 100000 nM | GI50 [24]: 766 nM | TGI [24]: > 100000 nM | GI50 [25]: 1260 nM | TGI [25]: > 100000 nM | GI50 [26]: 190 nM | TGI [26]: 1210 nM | GI50 [27]: 17400 nM | TGI [27]: > 100000 nM | GI50 [28]: 461 nM | TGI [28]: 3710 nM | GI50 [29]: 296 nM | TGI [29]: 1120 nM | GI50 [30]: 325 nM | GI50 [31]: 1020 nM | TGI [31]: > 100000 nM | GI50 [32]: 2970 nM | TGI [32]: > 100000 nM | GI50 [33]: 375 nM | TGI [33]: > 21900 nM | GI50 [34]: 1010 nM | TGI [34]: > 100000 nM | GI50 [35]: 911 nM | TGI [35]: > 100000 nM | GI50 [36]: 483 nM | GI50 [37]: 4830 nM | TGI [37]: > 100000 nM | GI50 [38]: 909 nM | TGI [38]: > 29700 nM | GI50 [39]: 542 nM | TGI [39]: 8730 nM | GI50 [40]: 1400 nM | TGI [40]: > 100000 nM | GI50 [41]: 538 nM | TGI [41]: 4410 nM | GI50 [42]: 841 nM | TGI [42]: > 100000 nM | GI50 [43]: 1770 nM | TGI [43]: > 100000 nM | GI50 [44]: 433 nM | TGI [44]: > 100000 nM | GI50 [45]: 1110 nM | TGI [45]: > 100000 nM | GI50 [46]: 107 nM | TGI [46]: > 32500 nM | GI50 [47]: 909 nM | TGI [47]: > 23500 nM | GI50 [48]: 169 nM | TGI [48]: 639 nM | GI50 [49]: 944 nM | GI50 [50]: 12900 nM | TGI [50]: > 100000 nM | GI50 [51]: > 100000 nM | TGI [51]: > 100000 nM | GI50 [52]: 776 nM | TGI [52]: > 100000 nM | GI50 [53]: 4990 nM | TGI [53]: > 100000 nM | GI50 [54]: 599 nM | TGI [54]: > 100000 nM | GI50 [55]: 286 nM | TGI [55]: 806 nM | GI50 [56]: 2050 nM | TGI [56]: > 100000 nM | GI50 [57]: 3260 nM | TGI [57]: > 100000 nM | GI50 [58]: 2290 nM | TGI [58]: > 100000 nM
